Experiments:
Experiment in all cases: relative viability (nuclei count vs DMSO), 5 days (fraction); higher = more cells survive
Everolimus + Lapatinib = compound: CO[C@H]1C[C@@H]2CC[C@@H](C)[C@@](O)(O2)C(=O)C(=O)N2CCCC[C@H]2C(=O)O[C@H]([C@H](C)C[C@@H]2CC[C@@H](OCCO)[C@H](OC)C2)CC(=O)[C@H](C)/C=C(\C)[C@@H](O)[C@@H](OC)C(=O)[C@H](C)C[C@H](C)/C=C/C=C/C=C/1C [Everolimus] + CS(=O)(=O)CCNCc1ccc(-c2ccc3ncnc(Nc4ccc(OCc5cccc(F)c5)c(Cl)c4)c3c2)o1 [Lapatinib] (partner 2 µM)
Summary of the method: (§1)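 The day after seeding in 1536-well plates, lung cancer cell lines were treated by pin tool with a single drug, or with a fixed anchor-drug dose together with five library-drug doses (not always all listed) in √10 steps. After 5 days, a combined fix-and-stain solution (final 0.05% Triton X-100, 1% formaldehyde, 1 ug/ml Hoechst) was added. Nuclei counted on 4× images gave relative viability as treated counts over vehicle counts, reported as the median of duplicate plates.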

Everolimus + Crizotinib = compound: CO[C@H]1C[C@@H]2CC[C@@H](C)[C@@](O)(O2)C(=O)C(=O)N2CCCC[C@H]2C(=O)O[C@H]([C@H](C)C[C@@H]2CC[C@@H](OCCO)[C@H](OC)C2)CC(=O)[C@H](C)/C=C(\C)[C@@H](O)[C@@H](OC)C(=O)[C@H](C)C[C@H](C)/C=C/C=C/C=C/1C [Everolimus] + C[C@@H](Oc1cc(-c2cnn(C3CCNCC3)c2)cnc1N)c1c(Cl)ccc(F)c1Cl [Crizotinib] (partner 1 µM)
Summary of the method: as §1

Everolimus + Tozasertib = compound: CO[C@H]1C[C@@H]2CC[C@@H](C)[C@@](O)(O2)C(=O)C(=O)N2CCCC[C@H]2C(=O)O[C@H]([C@H](C)C[C@@H]2CC[C@@H](OCCO)[C@H](OC)C2)CC(=O)[C@H](C)/C=C(\C)[C@@H](O)[C@@H](OC)C(=O)[C@H](C)C[C@H](C)/C=C/C=C/C=C/1C [Everolimus] + Cc1cc(Nc2cc(N3CCN(C)CC3)nc(Sc3ccc(NC(=O)C4CC4)cc3)n2)n[nH]1 [Tozasertib] (partner 0.1 µM)
Summary of the method: as §1

Everolimus + Decitabine = compound: CO[C@H]1C[C@@H]2CC[C@@H](C)[C@@](O)(O2)C(=O)C(=O)N2CCCC[C@H]2C(=O)O[C@H]([C@H](C)C[C@@H]2CC[C@@H](OCCO)[C@H](OC)C2)CC(=O)[C@H](C)/C=C(\C)[C@@H](O)[C@@H](OC)C(=O)[C@H](C)C[C@H](C)/C=C/C=C/C=C/1C [Everolimus] + Nc1ncn([C@H]2C[C@H](O)[C@@H](CO)O2)c(=O)n1 [Decitabine] (partner 2 µM)
Summary of the method: as §1

Row | Cell Line | relative viability (Everolimus + Lapatinib; first compound 0.01 µM) | relative viability (Everolimus + Lapatinib; first compound 0.03162 µM) | relative viability (Everolimus + Lapatinib; first compound 0.1 µM) | relative viability (Everolimus + Lapatinib; first compound 0.3162 µM) | relative viability (Everolimus + Lapatinib; first compound 1 µM) | relative viability (Everolimus + Crizotinib; first compound 0.01 µM) | relative viability (Everolimus + Crizotinib; first compound 0.03162 µM) | relative viability (Everolimus + Crizotinib; first compound 0.1 µM) | relative viability (Everolimus + Crizotinib; first compound 0.3162 µM) | relative viability (Everolimus + Crizotinib; first compound 1 µM) | relative viability (Everolimus + Tozasertib; first compound 0.01 µM) | relative viability (Everolimus + Tozasertib; first compound 0.03162 µM) | relative viability (Everolimus + Tozasertib; first compound 0.1 µM) | relative viability (Everolimus + Tozasertib; first compound 0.3162 µM) | relative viability (Everolimus + Tozasertib; first compound 1 µM) | relative viability (Everolimus + Decitabine; first compound 0.01 µM) | relative viability (Everolimus + Decitabine; first compound 0.03162 µM) | relative viability (Everolimus + Decitabine; first compound 0.1 µM) | relative viability (Everolimus + Decitabine; first compound 0.3162 µM) | relative viability (Everolimus + Decitabine; first compound 1 µM)
1 | NCI-H322M | 0.547 | 0.545 | 0.601 | 0.526 | 0.508 | 0.914 | 0.753 | 0.775 | 0.795 | 0.704 | 0.416 | 0.355 | 0.397 | 0.421 | 0.426 | 0.766 | 0.7 | 0.585 | 0.596 | 0.609
2 | NCI-H358 | 0.309 | 0.338 | 0.377 | 0.345 | 0.295 | 0.528 | 0.592 | 0.509 | 0.542 | 0.429 | 0.0999 | 0.106 | 0.0871 | 0.101 | 0.0971 | 0.204 | 0.195 | 0.218 | 0.19 | 0.205
3 | NCI-H460 | 0.912 | 0.919 | 0.805 | 0.866 | 0.84 | 0.783 | 0.738 | 0.808 | 0.845 | 0.872 | 0.719 | 0.698 | 0.603 | 0.538 | 0.569 | 0.498 | 0.53 | 0.506 | 0.369 | 0.421
4 | NCI-H520 | 0.379 | 0.39 | 0.313 | 0.285 | 0.405 | 0.478 | 0.398 | 0.426 | 0.354 | 0.353 | 0.271 | 0.28 | 0.264 | 0.222 | 0.239 | 0.273 | 0.281 | 0.26 | 0.287 | 0.294
5 | NCI-H596 | 0.715 | 0.677 | 0.545 | 0.676 | 0.677 | 0.677 | 0.65 | 0.631 | 0.619 | 0.683 | 0.528 | 0.548 | 0.485 | 0.455 | 0.478 | 0.761 | 0.595 | 0.739 | 0.69 | 0.605
6 | NCI-H647 | 0.583 | 0.562 | 0.505 | 0.536 | 0.87 | 0.582 | 0.771 | 0.596 | 0.582 | 0.709 | 0.28 | 0.281 | 0.198 | 0.344 | 0.14 | 0.16 | 0.157 | 0.101 | 0.0533 | 0.158
7 | NCI-H650 | 0.652 | – | 0.716 | 0.598 | 0.479 | 0.672 | – | 0.582 | 0.588 | 0.428 | 0.738 | – | 0.604 | 0.589 | 0.45 | 0.316 | 0.287 | 0.335 | 0.281 | 0.318
8 | NCI-H661 | 0.358 | 0.428 | 0.341 | 0.276 | 0.299 | 1.1 | 1.07 | 0.977 | 0.837 | 0.814 | 0.363 | 0.368 | 0.391 | 0.359 | 0.376 | 0.429 | 0.429 | 0.428 | 0.435 | 0.397
